Test results: ChEMBL document CHEMBL1201862, “PubChem BioAssay data set” (2004)
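96-well plates; 48 h exposure; 5 concentrations. Endpoints by linear interpolation between flanking doses. Not reached: highest tested concentration assigned. The concentration for 50% growth inhibition is given as GI50.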 Calls of active or inactive are those of the source. Rule as the data show it: active = GI50 up to about 1.1 µM and inactive = higher.

Tests used:
Experiment in all cases: NCI anticancer screen, dose series, 48 h
XF498 = tested on: XF498
DMS-114 = tested on: DMS-114
M19-MEL = tested on: M19-MEL
SNB-78 = tested on: SNB-78
LXFL 529 = tested on: LXFL 529
DLD-1 = tested on: DLD-1
DMS-273 = tested on: DMS-273
HOP-18 = tested on: HOP-18
RXF 631 = tested on: RXF 631

Structure (SMILES) | GI50 (XF498) | GI50 (DMS-114) | GI50 (M19-MEL) | GI50 (SNB-78) | GI50 (LXFL 529) | GI50 (DLD-1) | GI50 (DMS-273) | GI50 (HOP-18) | GI50 (RXF 631)
COc1ccccc1NC(=O)C1=C(C)NC(C)=C(C(=O)Nc2ccccc2OC)C1c1ccc(N(C)C)cc1 | 12.1 µM (inactive) | 21.8 µM (inactive) | 31.5 µM (inactive) | 27.1 µM (inactive) | 25.4 µM (inactive) | 17.9 µM (inactive) | – | – | –
COc1ccc(/C=C2\C(=O)NC(=O)c3ccccc32)cc1OC | 6.71 µM (inactive) | 5 µM (inactive) | 41 µM (inactive) | 6.58 µM (inactive) | – | 4.81 µM (inactive) | 21.4 µM (inactive) | > 100 µM (inactive) | –
O=P(NCCCO)(OCc1ccccc1)N(CCCl)CCCl (centres undefined) | > 100 µM (inactive) | – | > 100 µM (inactive) | > 100 µM (inactive) | – | > 31.6 µM (inactive) | > 100 µM (inactive) | > 39.5 µM (inactive) | –
COC(=O)C(=Cc1cc(OC)c(OC)c(OC)c1-c1cc2c(cc1C(C)=O)OCO2)C(=O)OC | 27.4 µM (inactive) | 37.5 µM (inactive) | 34.6 µM (inactive) | – | 33.8 µM (inactive) | 26.1 µM (inactive) | 30.7 µM (inactive) | 52.6 µM (inactive) | –
O=C1[C@H]2ON(c3ccccc3)C(c3ccc([N+](=O)[O-])cc3)[C@H]2C(=O)N1c1ccc(Cc2ccc(N3C(=O)[C@@H]4ON(c5ccccc5)C(c5ccc([N+](=O)[O-])cc5)[C@@H]4C3=O)cc2)cc1 (some centres undefined) | – | > 100 µM (inactive) | > 100 µM (inactive) | > 100 µM (inactive) | 74.6 µM (inactive) | > 100 µM (inactive) | > 100 µM (inactive) | > 100 µM (inactive) | > 100 µM (inactive)
O=[N+]([O-])c1cccc2nc3ccccc3c(NCCO)c12 | 0.00135 µM (active) | 0.00316 µM (active) | 0.0021 µM (active) | 0.00533 µM (active) | 0.00285 µM (active) | 0.000277 µM (active) | 0.00918 µM (active) | 0.0056 µM (active) | –
O=C(C(O)c1cn(Cc2ccccc2)c2ccccc12)N1CCCCC1 (centres undefined) | 93.1 µM (inactive) | > 100 µM (inactive) | > 100 µM (inactive) | > 10 µM (inactive) | 79.6 µM (inactive) | > 100 µM (inactive) | > 100 µM (inactive) | 24.1 µM (inactive) | –
CC(=O)NNc1nc(C)c(C(=O)NNC(=O)C(=O)Nc2c(C)cccc2C(C)C)s1 | > 100 µM (inactive) | 86.7 µM (inactive) | > 100 µM (inactive) | 27.9 µM (inactive) | 46.1 µM (inactive) | – | > 100 µM (inactive) | – | –
NC(=O)N/N=C/C(/C=N/NC(N)=O)[N+](=O)[O-] | > 100 µM (inactive) | > 100 µM (inactive) | > 100 µM (inactive) | – | > 100 µM (inactive) | > 100 µM (inactive) | – | – | > 100 µM (inactive)
CC1(c2ccc[n+](Cc3ccccc3)c2)OCCO1 | – | – | > 100 µM (inactive) | > 100 µM (inactive) | > 100 µM (inactive) | > 100 µM (inactive) | > 100 µM (inactive) | > 100 µM (inactive) | –
Cc1ccccc1NC(=O)c1c(C)oc2c1C(=O)c1ccccc1C2=O | 32.2 µM (inactive) | 24.7 µM (inactive) | 8.63 µM (inactive) | 1.86 µM (inactive) | 21.5 µM (inactive) | 33 µM (inactive) | 42 µM (inactive) | – | –
CCOC(=O)Oc1ccc2[nH]c3c(C)cc(N)c(C)c3c2c1 | > 100 µM (inactive) | 46.7 µM (inactive) | > 100 µM (inactive) | > 100 µM (inactive) | – | > 100 µM (inactive) | > 100 µM (inactive) | > 100 µM (inactive) | –
CCCN(CCCC(NC(C)=O)C(=O)NCc1ccccc1)C(=O)NCCCl (centres undefined) | > 100 µM (inactive) | > 100 µM (inactive) | > 100 µM (inactive) | – | > 100 µM (inactive) | > 100 µM (inactive) | > 100 µM (inactive) | > 100 µM (inactive) | > 100 µM (inactive)
COC(=O)C1=CO[C@@H](OC2CC(CO)C(O)C(O)C2O)[C@@H]2[C@@H](C)[C@@H](OC(=O)/C=C/c3ccccc3)[C@@H](O)[C@H]12.COC(=O)C1=CO[C@@H](OC2CC(CO)C(O)C(O)C2O)[C@@H]2[C@@H](C)[C@@H](OC(=O)c3ccccc3)[C@@H](O)[C@H]12 (some centres undefined) | > 100 µM (inactive) | > 100 µM (inactive) | > 100 µM (inactive) | – | > 100 µM (inactive) | > 100 µM (inactive) | – | > 100 µM (inactive) | –
COc1c(O)c(O)cc2c1-c1ccc(OC)c(=O)cc1C(NC(C)=O)CC2 (centres undefined) | 5.38 µM (inactive) | 2.49 µM (inactive) | 6.12 µM (inactive) | 3.12 µM (inactive) | 3.86 µM (inactive) | 4.71 µM (inactive) | 3.27 µM (inactive) | > 100 µM (inactive) | 14.9 µM (inactive)
CCNCC(=O)O[C@]1(CC)C(=O)OCc2c1cc1n(c2=O)Cc2cc3ccccc3nc2-1 | 0.364 µM (active) | 0.0857 µM (active) | 0.394 µM (active) | 5.11 µM (inactive) | 4.73 µM (inactive) | 2.37 µM (inactive) | 0.0119 µM (active) | 0.44 µM (active) | –
O=C(Cc1cc[n+]([O-])cc1)C(=O)Nc1cc(Cl)c(Cl)cc1Cl | – | > 100 µM (inactive) | > 100 µM (inactive) | > 100 µM (inactive) | > 100 µM (inactive) | > 100 µM (inactive) | – | – | > 100 µM (inactive)
O=C1C=C(Nc2ccc(S(=O)(=O)Nc3ncccn3)cc2)c2ccccc2C1=O | – | – | 15.5 µM (inactive) | 28.8 µM (inactive) | 23.2 µM (inactive) | 20.7 µM (inactive) | 27.7 µM (inactive) | 26.3 µM (inactive) | 22.3 µM (inactive)
CCCNC1=C(C(=O)OCC)C(=O)CO1 | > 100 µM (inactive) | > 100 µM (inactive) | > 100 µM (inactive) | > 100 µM (inactive) | > 100 µM (inactive) | > 100 µM (inactive) | > 100 µM (inactive) | – | > 100 µM (inactive)
CCOC(=O)c1ccn2c(c1)c(C#N)c1nc3ccccc3nc12 | 33.7 µM (inactive) | 52.2 µM (inactive) | 61.8 µM (inactive) | 15.5 µM (inactive) | 31.6 µM (inactive) | 27.4 µM (inactive) | 37.2 µM (inactive) | – | –
O=C1NC(=S)NC(=O)C1=CC1CC1 | > 100 µM (inactive) | > 100 µM (inactive) | > 100 µM (inactive) | > 100 µM (inactive) | > 100 µM (inactive) | > 100 µM (inactive) | > 100 µM (inactive) | > 100 µM (inactive) | –
CCOC(=O)C1=C(OC(OCC)C(C)[Se]c2ccccc2)CCC1 (centres undefined) | 16.1 µM (inactive) | – | 15.8 µM (inactive) | 97.1 µM (inactive) | 14.3 µM (inactive) | 19.3 µM (inactive) | 10.3 µM (inactive) | 20.8 µM (inactive) | –
Cc1ccc(C(=O)C(C)N)cc1C (centres undefined) | 41.5 µM (inactive) | > 100 µM (inactive) | > 100 µM (inactive) | – | > 100 µM (inactive) | > 100 µM (inactive) | – | – | > 100 µM (inactive)
COCC1N=C(c2cc(OC)c(OC)c(OC)c2-c2cc3c(cc2[C@H](C)O)OCO3)O[C@H]1c1ccccc1 (some centres undefined) | – | – | 37.1 µM (inactive) | 61 µM (inactive) | 37.7 µM (inactive) | 83.6 µM (inactive) | 37.2 µM (inactive) | 88.9 µM (inactive) | > 100 µM (inactive)
